Measurements taken from the supplement of paper PMC12076712.

Assays:
Assay in all cases: pIC50, kinobeads binding competition
Settings in all cases: cell material: Jurkat lysate
[1] = target: UniProt Q13233
[2] = target: UniProt Q13164
[3] = target: UniProt O75716
[4] = target: T1, UHMK1 (UniProt Q8TAS1)
T1 sequence (whole entry): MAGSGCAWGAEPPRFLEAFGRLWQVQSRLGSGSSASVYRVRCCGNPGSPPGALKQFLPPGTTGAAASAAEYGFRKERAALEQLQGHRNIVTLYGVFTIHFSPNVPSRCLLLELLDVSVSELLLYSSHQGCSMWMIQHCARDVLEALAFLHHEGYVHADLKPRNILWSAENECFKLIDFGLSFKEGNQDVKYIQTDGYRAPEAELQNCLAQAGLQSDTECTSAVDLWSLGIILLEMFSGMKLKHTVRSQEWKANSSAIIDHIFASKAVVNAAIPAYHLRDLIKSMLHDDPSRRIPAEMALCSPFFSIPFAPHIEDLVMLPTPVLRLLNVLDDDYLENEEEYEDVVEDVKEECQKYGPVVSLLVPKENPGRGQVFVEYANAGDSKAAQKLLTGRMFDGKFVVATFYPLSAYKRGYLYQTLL

[5] = target: STK35 (UniProt Q8TDR2)
STK35, sequence (Q8TDR2 whole entry): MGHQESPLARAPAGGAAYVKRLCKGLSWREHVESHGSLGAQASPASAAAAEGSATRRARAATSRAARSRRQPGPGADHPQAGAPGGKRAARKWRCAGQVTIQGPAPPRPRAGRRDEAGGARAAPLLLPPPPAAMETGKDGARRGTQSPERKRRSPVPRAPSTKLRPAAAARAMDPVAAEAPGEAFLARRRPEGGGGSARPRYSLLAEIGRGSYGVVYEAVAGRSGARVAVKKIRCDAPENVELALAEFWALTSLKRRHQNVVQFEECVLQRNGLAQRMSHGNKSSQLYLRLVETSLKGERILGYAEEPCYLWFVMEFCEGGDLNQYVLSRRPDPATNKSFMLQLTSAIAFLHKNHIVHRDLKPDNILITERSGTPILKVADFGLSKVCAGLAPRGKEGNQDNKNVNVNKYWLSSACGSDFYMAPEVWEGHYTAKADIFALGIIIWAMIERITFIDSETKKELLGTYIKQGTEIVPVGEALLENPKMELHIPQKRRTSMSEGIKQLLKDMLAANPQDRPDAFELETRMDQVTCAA

[6] = target: T2, EPHA3 (UniProt P29320)
T2 sequence (whole entry): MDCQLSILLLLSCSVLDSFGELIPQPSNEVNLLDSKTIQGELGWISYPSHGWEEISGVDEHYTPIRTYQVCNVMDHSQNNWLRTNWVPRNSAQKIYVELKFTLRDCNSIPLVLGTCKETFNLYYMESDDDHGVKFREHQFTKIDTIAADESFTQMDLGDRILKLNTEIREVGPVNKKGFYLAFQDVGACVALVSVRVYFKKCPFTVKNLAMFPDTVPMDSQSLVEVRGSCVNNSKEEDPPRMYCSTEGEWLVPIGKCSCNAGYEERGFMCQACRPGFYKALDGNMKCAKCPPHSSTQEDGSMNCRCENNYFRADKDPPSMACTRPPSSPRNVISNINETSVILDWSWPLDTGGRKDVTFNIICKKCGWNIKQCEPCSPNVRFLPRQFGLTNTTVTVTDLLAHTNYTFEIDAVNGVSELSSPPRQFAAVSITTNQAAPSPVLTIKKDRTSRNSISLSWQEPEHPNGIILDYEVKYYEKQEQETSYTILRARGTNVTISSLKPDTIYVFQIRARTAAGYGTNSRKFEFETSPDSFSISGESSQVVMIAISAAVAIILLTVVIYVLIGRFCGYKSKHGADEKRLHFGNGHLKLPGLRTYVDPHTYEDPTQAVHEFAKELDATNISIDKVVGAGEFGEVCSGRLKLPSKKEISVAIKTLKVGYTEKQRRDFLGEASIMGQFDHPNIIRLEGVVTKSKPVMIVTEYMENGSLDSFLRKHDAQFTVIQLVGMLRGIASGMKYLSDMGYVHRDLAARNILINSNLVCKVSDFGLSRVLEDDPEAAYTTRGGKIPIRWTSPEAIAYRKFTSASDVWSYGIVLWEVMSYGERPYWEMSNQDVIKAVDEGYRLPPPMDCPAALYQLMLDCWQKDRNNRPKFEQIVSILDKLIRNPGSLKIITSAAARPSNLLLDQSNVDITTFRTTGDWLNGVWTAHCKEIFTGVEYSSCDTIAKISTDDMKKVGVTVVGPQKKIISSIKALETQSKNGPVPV

[7] = target: TGFBR2 (UniProt P37173)
TGFBR2, sequence (P37173 whole entry): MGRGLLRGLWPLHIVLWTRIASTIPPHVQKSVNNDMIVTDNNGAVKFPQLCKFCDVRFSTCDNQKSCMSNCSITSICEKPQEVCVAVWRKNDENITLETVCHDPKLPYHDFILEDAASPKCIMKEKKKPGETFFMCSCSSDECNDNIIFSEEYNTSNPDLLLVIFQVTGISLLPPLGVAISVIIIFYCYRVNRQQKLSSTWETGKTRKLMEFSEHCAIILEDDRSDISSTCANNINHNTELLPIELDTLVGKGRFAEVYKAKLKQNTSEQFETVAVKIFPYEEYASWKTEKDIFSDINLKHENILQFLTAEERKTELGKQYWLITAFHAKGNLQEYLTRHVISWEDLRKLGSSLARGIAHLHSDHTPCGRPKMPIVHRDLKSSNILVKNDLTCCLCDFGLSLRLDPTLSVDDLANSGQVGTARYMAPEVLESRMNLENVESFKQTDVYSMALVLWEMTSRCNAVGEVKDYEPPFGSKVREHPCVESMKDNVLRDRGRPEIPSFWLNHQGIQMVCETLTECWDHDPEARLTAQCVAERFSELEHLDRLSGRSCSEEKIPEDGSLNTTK

[8] = target: T3, UniProt O14920
T3 sequence (whole entry): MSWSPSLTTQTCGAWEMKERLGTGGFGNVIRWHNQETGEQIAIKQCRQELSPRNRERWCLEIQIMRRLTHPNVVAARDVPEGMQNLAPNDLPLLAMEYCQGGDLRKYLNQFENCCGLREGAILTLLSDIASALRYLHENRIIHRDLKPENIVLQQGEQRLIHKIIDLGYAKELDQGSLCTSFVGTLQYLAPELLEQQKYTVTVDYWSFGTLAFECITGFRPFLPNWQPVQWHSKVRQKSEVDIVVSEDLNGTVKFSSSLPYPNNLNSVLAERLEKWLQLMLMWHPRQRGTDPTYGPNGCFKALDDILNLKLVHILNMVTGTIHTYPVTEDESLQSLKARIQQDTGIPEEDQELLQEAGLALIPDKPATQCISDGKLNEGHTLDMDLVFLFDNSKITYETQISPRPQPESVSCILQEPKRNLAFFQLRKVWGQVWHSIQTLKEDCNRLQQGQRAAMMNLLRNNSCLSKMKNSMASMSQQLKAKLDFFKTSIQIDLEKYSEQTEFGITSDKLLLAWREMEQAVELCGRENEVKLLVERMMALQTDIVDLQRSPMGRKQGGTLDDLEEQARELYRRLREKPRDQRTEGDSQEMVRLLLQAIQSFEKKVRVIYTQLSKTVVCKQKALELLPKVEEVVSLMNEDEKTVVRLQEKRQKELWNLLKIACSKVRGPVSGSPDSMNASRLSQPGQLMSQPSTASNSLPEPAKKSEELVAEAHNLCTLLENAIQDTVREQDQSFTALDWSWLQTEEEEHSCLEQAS

[9] = target: T4, RIOK1 (UniProt Q9BRS2)
T4 sequence (whole entry): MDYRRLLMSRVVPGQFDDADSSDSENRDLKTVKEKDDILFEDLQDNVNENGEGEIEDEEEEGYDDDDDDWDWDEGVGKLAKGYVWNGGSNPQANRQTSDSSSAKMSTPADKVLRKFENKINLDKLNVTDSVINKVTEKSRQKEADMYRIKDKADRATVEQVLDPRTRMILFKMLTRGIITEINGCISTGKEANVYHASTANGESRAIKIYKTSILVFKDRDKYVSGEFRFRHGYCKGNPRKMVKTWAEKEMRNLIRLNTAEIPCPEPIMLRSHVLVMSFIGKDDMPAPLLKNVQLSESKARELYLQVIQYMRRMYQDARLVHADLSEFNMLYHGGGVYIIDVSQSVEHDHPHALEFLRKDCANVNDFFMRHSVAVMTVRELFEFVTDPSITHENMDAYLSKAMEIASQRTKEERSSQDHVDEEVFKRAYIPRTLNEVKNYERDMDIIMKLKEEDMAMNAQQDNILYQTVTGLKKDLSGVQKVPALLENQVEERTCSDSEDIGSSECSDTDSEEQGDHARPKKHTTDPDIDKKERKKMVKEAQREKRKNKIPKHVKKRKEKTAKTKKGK

[10] = target: UniProt Q15208
UniProt Q15208, sequence (Q15208 whole entry, looked up): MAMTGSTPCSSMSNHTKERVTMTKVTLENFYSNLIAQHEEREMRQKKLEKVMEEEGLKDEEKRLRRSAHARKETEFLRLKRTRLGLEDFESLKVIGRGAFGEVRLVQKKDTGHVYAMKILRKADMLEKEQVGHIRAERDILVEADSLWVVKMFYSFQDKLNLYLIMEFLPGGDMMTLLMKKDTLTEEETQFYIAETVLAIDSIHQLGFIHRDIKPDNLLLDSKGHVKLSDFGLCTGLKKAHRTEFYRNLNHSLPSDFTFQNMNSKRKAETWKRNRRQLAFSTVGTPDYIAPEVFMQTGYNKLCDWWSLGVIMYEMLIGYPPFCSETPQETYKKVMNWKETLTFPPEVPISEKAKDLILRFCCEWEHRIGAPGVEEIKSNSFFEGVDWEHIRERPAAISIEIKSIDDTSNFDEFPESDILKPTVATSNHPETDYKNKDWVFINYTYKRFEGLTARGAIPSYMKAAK

Measured: pIC50

UniProt Q13164, sequence (Q13164 whole entry, looked up): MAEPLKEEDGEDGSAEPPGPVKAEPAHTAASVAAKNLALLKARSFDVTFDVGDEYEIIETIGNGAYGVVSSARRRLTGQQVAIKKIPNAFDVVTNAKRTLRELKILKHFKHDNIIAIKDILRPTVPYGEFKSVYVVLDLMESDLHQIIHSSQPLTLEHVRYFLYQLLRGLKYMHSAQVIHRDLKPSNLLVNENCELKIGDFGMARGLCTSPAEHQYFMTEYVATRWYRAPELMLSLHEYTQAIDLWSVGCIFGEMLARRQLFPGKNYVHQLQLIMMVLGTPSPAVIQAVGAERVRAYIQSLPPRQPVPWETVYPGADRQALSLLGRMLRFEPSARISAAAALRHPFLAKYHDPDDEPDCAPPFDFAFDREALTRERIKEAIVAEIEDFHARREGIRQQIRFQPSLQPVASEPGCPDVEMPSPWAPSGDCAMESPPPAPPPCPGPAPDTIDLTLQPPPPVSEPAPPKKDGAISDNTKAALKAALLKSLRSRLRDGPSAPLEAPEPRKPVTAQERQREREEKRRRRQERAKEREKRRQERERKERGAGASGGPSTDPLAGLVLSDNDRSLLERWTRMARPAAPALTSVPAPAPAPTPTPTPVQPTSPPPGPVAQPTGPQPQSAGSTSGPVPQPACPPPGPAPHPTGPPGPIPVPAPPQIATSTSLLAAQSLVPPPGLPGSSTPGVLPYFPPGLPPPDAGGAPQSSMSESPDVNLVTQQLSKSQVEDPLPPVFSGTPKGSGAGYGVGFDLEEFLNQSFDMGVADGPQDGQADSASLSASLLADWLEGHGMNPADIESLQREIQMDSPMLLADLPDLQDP
UniProt Q13233, sequence (Q13233 whole entry): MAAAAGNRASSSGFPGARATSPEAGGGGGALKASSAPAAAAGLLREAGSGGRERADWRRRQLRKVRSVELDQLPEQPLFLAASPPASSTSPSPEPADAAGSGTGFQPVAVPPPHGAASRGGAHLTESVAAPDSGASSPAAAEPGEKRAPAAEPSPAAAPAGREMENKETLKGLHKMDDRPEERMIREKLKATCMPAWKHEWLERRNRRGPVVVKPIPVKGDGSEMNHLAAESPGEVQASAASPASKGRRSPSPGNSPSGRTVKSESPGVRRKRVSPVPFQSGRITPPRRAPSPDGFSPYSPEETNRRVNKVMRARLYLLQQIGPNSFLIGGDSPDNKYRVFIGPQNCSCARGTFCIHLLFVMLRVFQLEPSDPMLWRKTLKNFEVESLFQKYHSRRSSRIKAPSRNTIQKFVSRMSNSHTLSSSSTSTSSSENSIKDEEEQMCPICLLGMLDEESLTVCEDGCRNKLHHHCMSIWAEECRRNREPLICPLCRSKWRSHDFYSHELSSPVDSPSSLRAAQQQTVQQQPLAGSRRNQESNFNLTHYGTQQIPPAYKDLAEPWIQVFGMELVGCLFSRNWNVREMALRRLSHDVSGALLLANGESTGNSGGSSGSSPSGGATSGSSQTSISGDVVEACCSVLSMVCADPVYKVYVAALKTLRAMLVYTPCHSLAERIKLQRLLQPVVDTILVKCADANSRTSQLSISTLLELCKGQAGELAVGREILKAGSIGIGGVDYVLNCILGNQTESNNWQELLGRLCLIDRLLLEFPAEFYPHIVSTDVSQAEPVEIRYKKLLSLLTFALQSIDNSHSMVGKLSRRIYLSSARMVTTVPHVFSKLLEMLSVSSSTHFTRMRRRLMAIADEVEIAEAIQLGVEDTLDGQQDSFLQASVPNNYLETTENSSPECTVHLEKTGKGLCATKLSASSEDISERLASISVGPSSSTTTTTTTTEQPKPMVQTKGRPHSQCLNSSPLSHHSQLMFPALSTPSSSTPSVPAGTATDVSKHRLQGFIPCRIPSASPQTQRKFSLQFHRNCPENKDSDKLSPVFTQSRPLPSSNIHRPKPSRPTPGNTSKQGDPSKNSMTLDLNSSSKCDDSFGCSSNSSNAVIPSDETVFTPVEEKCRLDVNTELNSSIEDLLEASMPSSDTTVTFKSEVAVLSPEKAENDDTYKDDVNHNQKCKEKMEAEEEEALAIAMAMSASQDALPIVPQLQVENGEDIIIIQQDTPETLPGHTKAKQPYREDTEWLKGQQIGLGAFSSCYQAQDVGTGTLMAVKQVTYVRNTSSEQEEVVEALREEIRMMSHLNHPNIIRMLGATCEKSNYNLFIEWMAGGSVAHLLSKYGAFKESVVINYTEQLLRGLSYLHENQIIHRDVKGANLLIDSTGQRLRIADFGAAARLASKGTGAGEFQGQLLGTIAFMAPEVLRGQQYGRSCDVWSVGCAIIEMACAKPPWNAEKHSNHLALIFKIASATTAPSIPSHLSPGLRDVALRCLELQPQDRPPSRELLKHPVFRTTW
UniProt O75716, sequence (O75716 whole entry): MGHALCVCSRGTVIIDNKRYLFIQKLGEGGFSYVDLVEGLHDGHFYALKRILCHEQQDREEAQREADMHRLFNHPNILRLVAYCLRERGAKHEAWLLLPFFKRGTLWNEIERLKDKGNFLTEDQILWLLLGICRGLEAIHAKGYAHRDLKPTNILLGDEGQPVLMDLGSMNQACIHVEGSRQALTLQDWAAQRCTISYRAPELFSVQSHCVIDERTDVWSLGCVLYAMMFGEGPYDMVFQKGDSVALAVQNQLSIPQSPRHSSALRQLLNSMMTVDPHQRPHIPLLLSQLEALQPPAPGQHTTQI

CCc1cnn2c(NCc3ccc[n+]([O-])c3)cc(N3CCCC[C@H]3CCO)nc12 [dinaciclib]
< 4.52: [1] | [2] | [3] | [4] | [5] | [6] | [7] | [8] | [9] | [10]
